Usually pIC50 stands for −log10 of the IC50, conventionally taken in molar units. Read a low pIC50 as a high IC50.

pIC50: −log10 of the molar value.

The results in this text go back to patent US20070196848A1, “DETECTION OF PHOSPHORYLATED eIF2-alpha AS A DIAGNOSTIC TEST FOR EFFICACY AND SENSITIVITY OF TRANSLATION INITIATION INHIBITORS IN THE TREATMENT OF CANCER AND OTHER PROLIFERATIVE DISEASES” (priority 2004, published 2007).

In one data set the test system is BRCA1. Nature of the data set: BRCA1 expression in MCF-7 breast cancer cells. The class given is cell-based, human. As to conditions: MCF-7 cells, dose-dependent. From the text:
(§1) FIGS. 4A-4C depict dose-dependent up-regulation of BRCA1 in MCF-7 breast cancer cells by EPA (A) and CLT (B). Upper bands, BRCA1; lower bands, actin.
(§2) MCF-7 breast cancer cells, known to have very low levels of BRCA1 protein, were exposed to CLT and EPA. […] To confirm that up-regulation of BRCA1 was at the level of translation, the 5′ UTRs of either BRCA1 mRNAa or mRNAb were placed in front of the firefly luciferase reporter gene using in both cases renilla luciferase as an internal control. These constructs were transfected into MCF-7 breast cancer cells. […] Without intending to be bound by theory, these experiments indicate that the inhibitors of translation initiation that induce phosphorylation of eIF2α restrict the availability of the ternary complex to translationally up-regulate the tumor suppressor gene BRCA1, a critical player in many types of sporadic breast and ovarian cancers.

In a further data set the test system is 5′ UTR of BRCA1 mRNA. Nature of the data set: firefly luciferase reporter with 5′ UTR of BRCA1 mRNAa or mRNAb in MCF-7 cells. Format: cell-based, human. As to conditions: renilla luciferase internal control.
Excerpt: as §1, §2
(Reporter assays use an easily measured gene product as a stand-in for the process of interest.)

In another data set the test system is A549. Nature of the data set: sulfarodamine B cell growth assay (SRB). Format: cell-based. As to conditions: Homo sapiens; A549, Lung. The source says: (§3) The effect of EPA on the proliferation of a panel of cancer cell lines representative of most common human cancers was studied using the sulfarodamine B cell growth assay (SRB). EPA inhibited the proliferation of all cancer cell lines tested, including androgen dependent and androgen independent prostate cancer cell lines (LNCaP, PC-3 and DU-145) in a dose dependent manner (Table 1: effect of EPA on human cancer cello growth).

The subject of the next data set is ACHN. Nature of the data set: sulfarodamine B cell growth assay (SRB). Format: cell-based. As to conditions: Homo sapiens, Kidney.
Excerpt: as §3

A further data set relates to Caski-1. As to the kind of experiment: sulfarodamine B cell growth assay (SRB). The class given is cell-based. As to conditions: Homo sapiens; Caski-1, Cervix.
Excerpt: as §3

A further data set deals with DU-145. As to the kind of experiment: sulfarodamine B cell growth assay (SRB). The note with it: Homo sapiens; DU-145, Prostate. Format: cell-based.
Excerpt: as §3

The subject of a further data set is HCT-15. Nature of the data set: sulfarodamine B cell growth assay (SRB). The class given is cell-based. The note with it: Homo sapiens; HCT-15, Colon.
Excerpt: as §3

In a further data set the test system is HT-29. As to the kind of experiment: sulfarodamine B cell growth assay (SRB). Format: cell-based. As to conditions: Homo sapiens; HT-29, Colon.
Excerpt: as §3

A further data set has as its system HeLa. Nature of the data set: sulfarodamine B cell growth assay (SRB). As to conditions: Homo sapiens, Cervix. Format: cell-based.
Excerpt: as §3

The next data set concerns Hep-G2. Nature of the data set: sulfarodamine B cell growth assay (SRB). The class given is cell-based. The note with it: Homo sapiens, HepG2; Hep-G2, Liver.
Excerpt: as §3

In a further data set the test system is LNCaP. Nature of the data set: sulfarodamine B cell growth assay (SRB). The class given is cell-based. The note with it: Homo sapiens, Prostate.
Excerpt: as §3

Another data set deals with MCF-7. As to the kind of experiment: sulfarodamine B cell growth assay (SRB). Format: cell-based. As to conditions: Homo sapiens, MCF7; MCF-7, Breast.
Excerpt: as §3

The test system of the next data set is MDAMB231. As to the kind of experiment: sulfarodamine B cell growth assay (SRB). Format: cell-based. As to conditions: Homo sapiens, MDA-MB-231; MDAMB231, Breast.
Excerpt: as §3

For a further data set, the system named is MMRU. Nature of the data set: sulfarodamine B cell growth assay (SRB). Format: cell-based. As to conditions: Homo sapiens, Skin.
Excerpt: as §3

The next data set concerns PC-3. As to the kind of experiment: sulfarodamine B cell growth assay (SRB). Format: cell-based. The note with it: Homo sapiens; PC-3, Prostate.
Excerpt: as §3

The next data set concerns SK-Mel-28. Nature of the data set: sulfarodamine B cell growth assay (SRB). As to conditions: Homo sapiens; SK-Mel-28, Skin. The class given is cell-based.
Excerpt: as §3

Another data set concerns SK-OV3. Nature of the data set: sulfarodamine B cell growth assay (SRB). The class given is cell-based. The note with it: Homo sapiens, SK-OV-3; SK-OV3, Ovary.
Excerpt: as §3

For the next data set, the system named is U-118 MG. As to the kind of experiment: sulfarodamine B cell growth assay (SRB). The class given is cell-based. The note with it: Homo sapiens, Glioblastoma.
Excerpt: as §3

The next data set deals with HTB-174. Nature of the data set: sulfarodamine B cell growth assay (SRB). Format: cell-based. As to conditions: Homo sapiens; HTB-174, Lung. The source says: The effect of EPA on the proliferation of a panel of cancer cell lines representative of most common human cancers was studied using the sulfarodamine B cell growth assay (SRB).
Data set [1] has as its system DU-145 cells transfected with eIF2α51A. Nature of the data set: cell cycle distribution of GFP expressing cells by FACS. The class given is cell-based, human. The note with it: 51A, GFP-expressing DU-145 cells. As to the method: (§4) FIG. 10 depicts cell cycle inhibition by EPA that is dependent on eIF2α phosphorylation. DU-145 human prostate cancer cell lines were transiently transfected with eIF2α-51A-GFP or eIF2α-WT-GFP plasmids, treated with EPA or vehicle, stained with propidium iodide and cell cycle distribution of GFP transfected cells was determined.
(§5) eIF2α51A is a […] non-phosphorylatable mutant of eIF2α in which serine 51 has been replaced by alanine (FIG. 9). To confirm that eIF2α phosphorylation is also critical for EPA-mediated inhibition of cell proliferation in prostate cancer cells, DU-145 cells were transiently transfected with a construct that co-expresses the fluorescent marker GFP with either eIF2αWT (i.e., eIF2α wild-type) or eIF2α51A. These cells were treated with either EPA or vehicle DMSO, and the cell cycle distribution of GFP expressing cells was determined by FACS analysis.
In general terms: A flow cytometer gives signals particle by particle.

Data set [2] concerns DU-145 cells transfected with eIF2αWT. Described as above. Format: cell-based, human. As to conditions: WT, GFP-expressing DU-145 cells. As to the method:
as §4, §5

The subject of a further data set is eIF2α phosphorylation. Nature of the data set: immunoblot with anti-S51-P-eIF2α-specific antibody in DU-145 cells. The note with it: two hours. The class given is cell-based, human. On the technique in general: A western blot detects proteins with antibodies after separation by electrophoresis.
The subject of data set [3] is PC-3 human prostate tumors. Nature of the data set: orthotopic xenograft model of human prostate cancer, survival. The class given is in vivo, mouse. As to conditions: PC-3 orthotopic, gavage 2.5 grams/kilogram/day. From the text: FIGS. 14A-14F depict the effect of EPA on xenograft cancer models. (A) EPA increased the mean survival time in an orthotopic model of PC-3 human prostate tumors (left, corn oil; right, EPA). (B) EPA reduced tumor growth in an orthotopic syngenic model of KLN mouse squamous cell carcinoma (5 weeks) (left, corn oil; right, EPA). (C) EPA induced phosphorylation of eIF2α in the KLN tumors (left, corn oil; middle, EPA1;
Human PC-3 prostate cancer cells stably transfected with the GFP fluorescent marker were implanted into mouse prostate glands and tumors were allowed to establish. Mice with tumors detectable by whole body fluorescent scanning were treated with EPA or corn oil, orally administered by gavage (2.5 grams/kilogram/day).

The subject of the next data set is p53^−/− mice. From the text: p53 is the most commonly mutated gene in human cancers. The anti-cancer activity of EPA was investigated in p53^−/− mice, which develop a wide variety of spontaneous tumors with 100% penetrance and die from cancer within 50 weeks of age. Age and sex matched animals were randomly distributed to treatment (2.5 grams/kilogram EPA) or control (2.5 grams/kilogram corn oil) administered daily by gavage.

Description for eIF2α phosphorylation: To investigate whether depletion of Ca^++ stores by EPA causes activation of eIF2α kinases and phosphorylation of eIF2α in prostate cancer cells, DU-145 cells were incubated with or without increasing concentrations of EPA for two hours.

As to `Clc1ccccc1C(c1ccccc1)(c1ccccc1)n1ccnc1` [CLT, clotrimazole], the “up-regulation of BRCA1” value in the data set on BRCA1 was “significant up-regulation of BRCA1”. Besides, in the data set on 5′ UTR of BRCA1 mRNA, the “translation of reporter fused to 5′ UTR of BRCA1 mRNAb” value is on record as “significantly up-regulated translation”.

In the case of `CC/C=C\C/C=C\C/C=C\C/C=C\C/C=C\CCCC(=O)O` [EPA, eicosapentaenoic acid], the pIC50 in the data set on A549 is 4.27; in the data set on ACHN, 4.21; in the data set on Caski-1, 4.12; with DU-145 it was 4.44; in the data set with HCT-15 it was 4.33; with HT-29, 4.14. In addition, the pIC50 is 5.00 with HeLa; 4.62 with Hep-G2; 4.74 in the data set with LNCaP; 4.37 in the data set on MCF-7; 4.43 with MDAMB231; 4.44 in the data set on MMRU. Besides, the pIC50 is 4.70 in the data set on PC-3; 4.34 with SK-Mel-28; 4.02 with SK-OV3; 4.44 in the data set on U-118 MG; 4.10 in the data set on HTB-174. Further, the “% G1” value stood at 48% in data set [1] and 67% in data set [2]. Further, the “% G2/M” value was found to be 21% in [1] and 14% in [2]. The figures for the “% S” value in data set [1] and in data set [2] were 31% and 19%, respectively. Further, the “increase in eIF2α phosphorylation” value in the data set on eIF2α phosphorylation is given as “approximately 10 fold”. Besides, the “longer mean survival time than corn oil” value in data set [3] is 50%. Besides, the mean survival time in data set [3] worked out at 38 ± 5 days. The sign of toxicity result in the data set on p53^−/− mice (mouse, in vivo) is recorded as “Neither control nor EPA treated animals showed any sign of toxicity”. Moreover, in the data set with p53^−/− mice (oral 2.5 grams/kilogram/day from four weeks of age), the “mean survival time (Kaplan-Meier)” value amounted to 385 ± 12 days.
